Measurements as given in PubChem BioAssay (NCI).
Values joined by “and” are separate entries in the source; they are usually repeats but may differ in a detail not shown here. Equal entries are not always repeated.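 Protocol summary: plate cells (96-well), add compound at 5 concentrations, incubate 48 h, interpolate endpoints linearly. The concentration for 50% growth inhibition is given as GI50. TGI: concentration producing complete growth inhibition.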

Assays:
Assay in all cases: growth of human tumour cells (NCI), 48 h
[1] = tested on: M14 melanoma
[2] = tested on: 786-0 renal
[3] = tested on: ACHN renal
[4] = tested on: SK-OV-3 ovarian
[5] = tested on: NCI-H23 lung
[6] = tested on: UACC-62 melanoma
[7] = tested on: OVCAR-3 ovarian
[8] = tested on: CCRF-CEM leukemia
[9] = tested on: SK-MEL-5 melanoma
[10] = tested on: NCI-H226 lung
[11] = tested on: LOX IMVI melanoma
[12] = tested on: SNB-19 CNS
[13] = tested on: NCI/ADR-RES ovarian
[14] = tested on: MDA-MB-231 breast
[15] = tested on: T-47D breast
[16] = tested on: PC-3 prostate
[17] = tested on: MDA-MB-435

Row | Structure (SMILES) | TGI [1] | TGI [2] | TGI [3] | TGI [4] | TGI [5] | TGI [6] | TGI [7] | TGI [8] | TGI [9] | TGI [10] | TGI [11] | TGI [12] | TGI [13] | TGI [14] | TGI [15] | TGI [16] | TGI [17] | GI50 [7] | GI50 [8] | GI50 [10]
1 | O=c1c2ccccc2nc2ccc3c(Cl)[nH][nH]c3c12 | > 100 µM | > 100 µM | > 100 µM | > 100 µM | > 100 µM | > 77.7 µM | > 100 µM | > 100 µM | > 100 µM | > 48.4 µM | 58.3 µM | > 100 µM |  |  |  |  |  |  |  | 
2 | COc1ccc(Oc2ccccc2N)cc1 | > 100 µM |  | > 100 µM | > 100 µM | > 100 µM | > 100 µM | > 100 µM | > 100 µM | 33.6 µM | > 100 µM | > 100 µM |  |  |  |  |  |  |  |  | 
3 | CSc1cnc2ccccc2c1Sc1c[nH]c2ccccc2c1=O | 27.2 µM | 34.8 µM | 52.5 µM | 14.8 µM | 36.7 µM | 25.1 µM | 22 µM | > 87.3 µM | 26.6 µM | 33 µM | 67.2 µM | 65.4 µM |  |  |  |  |  |  |  | 
4 | CC(=O)C(C)(C)CCC(C)(C)C(C)=O | > 100 µM | > 100 µM | > 100 µM | > 100 µM | > 100 µM | > 100 µM |  | > 100 µM | > 100 µM | > 100 µM | > 100 µM | > 100 µM | > 100 µM | > 100 µM | > 100 µM | > 100 µM |  |  |  | 
5 | CCOC(=O)C1=C(O)c2ccc(C)cc2C(=O)C1=O | > 100 µM | > 100 µM | > 100 µM | > 100 µM | 98.8 µM | > 100 µM | > 100 µM | > 100 µM | > 100 µM | > 100 µM | > 100 µM | > 100 µM |  |  |  |  |  |  |  | 
6 | CCOc1cc2c(cc1O)C(O)C[C@@H]1[C@@H]2CC[C@]2(C)[C@@H](O)CC[C@@H]12 (stereo partly specified) | > 100 µM | > 83 µM | > 100 µM | > 100 µM | > 24.7 µM | > 100 µM | > 100 µM | > 100 µM |  | > 100 µM | > 100 µM | > 61.8 µM | 4.04 µM | > 66 µM |  | > 100 µM | > 100 µM |  |  | 
7 | Cn1c(=O)sc2cc(C(=S)N3CCCCC3)ccc21 | > 100 µM | > 100 µM | > 100 µM | > 100 µM | > 100 µM | > 100 µM | > 100 µM | 43 µM | > 100 µM | > 100 µM | > 100 µM | > 100 µM | > 100 µM | > 100 µM |  | > 100 µM | > 100 µM |  |  | 
8 | COC(NC(=O)Nc1ccccc1C)(C(F)(F)F)C(F)(F)F | > 100 µM | > 100 µM | > 100 µM | > 100 µM | > 100 µM | > 100 µM | > 100 µM | > 100 µM | > 100 µM | > 100 µM | > 100 µM | > 100 µM | > 100 µM |  | > 100 µM | > 100 µM | > 100 µM |  |  | 
9 | COc1cc2c(c(OC)c1OC)-c1ccc(SC)c(=O)cc1[C@@H](NCc1ccc([N+](=O)[O-])cc1)CC2 |  | > 100 µM | > 100 µM |  |  | 51.2 µM | 0.00965 µM |  | 17.5 µM | 0.0134 µM | > 100 µM | > 100 µM |  |  |  |  |  |  |  | 
10 | O=C(N=Nc1ccccc1Cl)NNc1ccccc1Cl | > 100 µM | 34.4 µM | 92.6 µM |  | > 100 µM | > 100 µM | 95.3 µM | 53.6 µM | > 100 µM | > 100 µM | 44.8 µM | > 100 µM |  | > 100 µM | > 100 µM | > 100 µM | > 100 µM |  |  | 
11 | Clc1ccc(C2=CCN3CC=C(c4ccc(Cl)cc4)C23)cc1 | 22.6 µM | 24.1 µM | 27 µM |  | 26.8 µM | 21.2 µM | 25.1 µM | 52 µM | 13.5 µM | 43.2 µM | 20.6 µM | 31.6 µM | 26.9 µM | 25 µM | 29.2 µM |  | 22.9 µM |  |  | 
12 | Nc1c(S(=O)(=O)O)cc(S(=O)(=O)O)c2ccc(N=Nc3ccc(/C=C/c4ccc(N=Nc5ccc6c(S(=O)(=O)O)cc(S(=O)(=O)O)c(N)c6c5O)cc4S(=O)(=O)O)c(S(=O)(=O)O)c3)c(O)c12 |  |  |  | > 100 µM | > 100 µM | > 100 µM | > 100 µM | > 100 µM | > 100 µM | > 100 µM | > 100 µM | > 100 µM | > 100 µM |  |  |  |  |  |  | 
13 | CC1(C)O[C@@H](C[C@]2(C#N)C[C@H](CCl)OC(C)(C)O2)C[C@@H](C#N)O1 | > 100 µM | > 100 µM | > 100 µM | > 100 µM | > 100 µM | > 100 µM | > 100 µM | > 100 µM | > 100 µM | > 100 µM | > 100 µM | > 100 µM |  |  |  |  |  |  |  | 
14 | COc1ccc(C)cc(=O)c1O | > 100 µM | > 100 µM | > 100 µM | > 100 µM | > 100 µM | > 100 µM | > 100 µM | 72.5 µM | > 100 µM | > 100 µM | 79.7 µM | > 100 µM |  |  |  |  |  |  |  | 
15 | Cc1c2ccncc2c(C)c2c1[nH]c1ccc(OCCN(C)C)cc12 |  |  |  | 1.84 µM | 1.22 µM | 2.35 µM | 1.07 µM | 1.3 µM | 3.4 µM | 0.976 µM | 0.396 µM | 0.958 µM | 0.348 µM |  |  |  |  |  |  | 
16 | CN(C)CC1CCC(CN(C)C)C(=O)C1=O (stereo unspecified) | 12.5 µM | 29.7 µM | 11.9 µM | 38.7 µM | 22.1 µM | 31.3 µM | 5.32 µM | 4.51 µM | 30 µM | 10.8 µM | 22.2 µM | 29.9 µM |  | 19.5 µM | 5.36 µM | 31.1 µM | 31.7 µM |  |  | 
17 | [N-]=[N+]=NCC(O)Cn1cnc2c(NC(=O)c3ccccc3)ncnc21 (stereo unspecified) | > 100 µM | > 100 µM | > 100 µM |  | > 100 µM | > 100 µM |  | > 100 µM | > 100 µM | > 100 µM | > 100 µM | > 100 µM |  |  |  |  |  |  |  | 
18 | COc1cc(Oc2nc3cc(F)c(F)cc3nc2-c2ccccc2)cc(OC)c1OC | > 100 µM | > 100 µM | > 100 µM | > 100 µM | > 100 µM | > 100 µM | > 100 µM | > 100 µM | 75.3 µM | > 100 µM | > 100 µM | > 100 µM | > 100 µM |  | > 100 µM | > 100 µM | > 100 µM |  |  | 
19 | N/C(=N\N=C\c1ncccc1O)NO |  |  |  | > 84.1 µM | > 100 µM | 43 µM | > 100 µM | > 47.6 µM | > 31.6 µM | 58.1 µM | > 100 µM | 98.9 µM | > 85.5 µM |  |  |  |  |  |  | 
20 | NC(=O)CN1C=CCC(C(N)=O)=C1 | > 100 µM | > 100 µM | > 100 µM | > 100 µM | > 100 µM | > 100 µM | > 100 µM | > 100 µM | > 100 µM | > 100 µM | > 100 µM | > 100 µM | > 100 µM |  | > 100 µM | > 100 µM | > 100 µM |  |  | 
21 | CC1(C)C=C(/C=N/Nc2ccccc2)C(C#N)=C(O)C1(C#N)C#N | > 100 µM | > 100 µM | > 100 µM | > 100 µM | > 100 µM | > 100 µM | > 100 µM | > 100 µM | > 100 µM | > 100 µM | > 100 µM | > 100 µM | > 100 µM | > 100 µM |  | > 100 µM | > 100 µM |  |  | 
22 | O=C1NC(Cc2ccc(O)cc2)C(=O)NC1Cc1ccc(O)cc1 (stereo unspecified) | > 100 µM | > 100 µM | > 100 µM | > 100 µM | > 100 µM | > 100 µM | > 100 µM | > 100 µM | > 100 µM | > 100 µM | > 100 µM | > 100 µM | > 100 µM | > 100 µM |  | > 100 µM | > 100 µM |  |  | 
23 | C=C1CC(C)(c2cccc(Nc3nc4ccccc4c4occc34)c2)OC1=O (stereo unspecified) | 7.26 µM | 3.08 µM | 19.6 µM | 27.2 µM |  | 2.43 µM | 17.5 µM | 5.08 µM | 28.3 µM | 4.54 µM |  | 59.4 µM | 26.8 µM | 23.1 µM | 20.5 µM | 21.9 µM | 21.8 µM |  |  | 
24 | C=C1C(C)C2C(Cc3ccccc3)NC(=O)C23OC(=O)/C=C\CC(=O)CCC(C)C/C=C/C3C1O (stereo unspecified) |  |  |  | 19 µM | 12.5 µM | 11.2 µM | 7.9 µM |  | 16.3 µM | 10.3 µM | 3.64 µM | 12.9 µM | 33.4 µM |  |  |  |  | 0.384 µM | 0.135 µM and 0.216 µM | 0.635 µM
25 | CCOC(=O)CCC(C(=O)OCC)n1nnc2cc(Nc3c(C)[n+]([O-])c4cc(F)c(OCC)cc4[n+]3[O-])ccc21 (stereo unspecified) | > 100 µM | > 100 µM | > 100 µM | > 100 µM | > 100 µM | > 100 µM | > 100 µM | > 100 µM | > 100 µM | > 100 µM | > 100 µM | > 100 µM | > 100 µM |  | > 100 µM | > 100 µM | > 100 µM |  |  | 
26 | O=[N+]([O-])/C(C(Cl)=C(Cl)Cl)=C(/Nc1cccc2cccnc12)n1nnc2ccccc21 | 25.5 µM | 43.8 µM | 49.8 µM | 32.9 µM | 34.7 µM |  | 23.7 µM | > 100 µM |  | 67.4 µM |  | 33.1 µM | 53.7 µM |  | 41 µM | 51.3 µM | 33 µM |  |  | 
